# Assays:
# Assay type in all cases: in vivo
# [1] = tested on: house flies (Musca domestica, L.); assay: Fly Bait Test; parameters: key: A: excellent control; B: partial control; C: no control; conditions: 500 parts per million bait in sugar solution; twenty four hours
# Description: (§1) Suspensions of the test compounds were prepared by dissolving one gram of compound in 50 milliliters of acetone in which had been dissolved 0.1 gram (10 percent of the weight of compound) of an alkylphenoxy polyethoxyethanol surfactant, as an emulsifying or dispersing agent. The resulting solution was mixed into 150 milliliters of water to give roughly 200 milliliters of a suspension containing the compound in finely divided form. The thus-prepared stock suspension contained 0.5 percent by weight of compound. The test concentrations in parts per million by weight employed in the tests described hereinbelow were obtained by appropriate dilutions of the stock suspension with water. The test procedures were as follows:
# Four to six day old adult house flies (Musca domestica, L.) reared according to the specifications of the Chemical Specialties Manufacturing Association (Blue Book, McNair-Dorland Co., N.Y. 1954; pages 243-244, 261) under controlled conditions of 80°±5° F. and 50±5 percent relative humidity, were the test insects. The flies were immobilized by anesthetizing with carbon dioxide and twenty five immobilized individuals, males and females, were transferred to a cage consisting of a standard food strainer about five inches in diameter which was inverted over a wrapping-paper-covered surface. The test compounds were formulated by diluting the stock suspension with a 10 percent (by weight) sugar solution to give a suspension containing 500 parts of test compound per million parts of final formulation, by weight. Ten milliliters of the test formulation were added to a souffle cup containing a one-inch square of an absorbent cotton pad. This bait cup was introduced and centered on the blotting paper under the food strainer prior to admitting the anesthetized flies. The caged flies were allowed to feed on the bait for twenty four hours, at a temperature of 80°±5° F. and the relative humidity of 50±5 percent.
# [2] = tested on: southern armyworm (Prodenia eridania, (Cram.)); assay: Southern Armyworm Leaf Spray Test; parameters: key: A: excellent control; B: partial control; C: no control; conditions: 500 parts per million leaf spray; three days
# Description: as §1
# Larvae of the southern armyworm (Prodenia eridania, (Cram.)), reared on Tendergreen bean plants at a temperature of 80°±5° F. and a relative humidity of 50±5 percent, constituted the test insects.
# The test compounds were formulated by diluting the stock suspension with water to give a suspension containing 500 parts of test compound per million parts of final formulation. Potted Tendergreen bean plants of standard height and age were placed on a revolving turntable and sprayed with 100-110 milliliters of test compound formulation by use of a DeVilbiss spray gun set at 10 psig air pressure. This application, which lasted 25 seconds, was sufficient to wet plants to run-off. As a control, 100-110 milliliters of a water-acetone-emulsifier solution containing no test compound were also sprayed on infested plants. When dry, the paired leaves were separated and each one was placed in a 9 centimeter Petri dish lined with moistened filter paper. Five randomly selected larvae were introduced into each dish and the dishes were closed. The closed dishes were labeled and held at 80°-85° F. for three days. Although the larvae could easily consume the whole leaf within twenty-four hours, no more food was added. Larvae which were unable to move the length of the body, even upon stimulation by prodding, were considered dead. Percent mortality was recorded for various concentration levels.
# [3] = tested on: Mexican bean beetle (Epilachna varivestis, Muls.); assay: Mexican Bean Beetle Leaf Spray Test; parameters: key: A: excellent control; B: partial control; C: no control; conditions: 500 parts per million leaf spray; fourth instar larvae; three days
# Description: as §1
# Fourth instar larvae of the Mexican bean beetle (Epilachna varivestis, Muls.), reared on Tendergreen bean plants at a temperature of 80°±5° F. and 50±5 percent relative humidity, were the test insects.
# The test compounds were formulated by diluting the stock suspension with water to give a suspension containing 500 parts of test compound per million parts of final formulation. Potted Tendergreen bean plants of standard height and age were placed on a revolving turntable and sprayed with 100-110 milliliters of test compound formulation by use of a DeVilbiss spray gun set at 10 psig air pressure. This application, which lasted 25 seconds, was sufficient to wet plants to run-off. As a control, 100-110 milliliters of a water-acetone-emulsifier solution containing no test compound were also sprayed on infested plants. When dry, the paired leaves were separated and each was placed in a 9 centimeter Petri dish lined with moistened filter paper. Five randomly selected larvae were introduced into each dish, and the dishes were closed. The closed dishes were labeled and held at a temperature of 80°±5° F. for three days. Although the larvae could easily consume the leaf within 24 to 48 hours, no more food was added. Larvae which were unable to move the length of the body, even upon stimulation, were considered dead.
# [4] = tested on: root-knot nematode (Meloidogyne incognita var. acrita); assay: Nematode Test; parameters: key: 1: severe galling; equal to untreated control; 2: moderate galling; 3: light galling; 4: very light galling; 5: no galling; conditions: 10 ml of 500 parts per million formulation per jar of soil; cucumber indicator crop, approximately three weeks
# Description: as §1
# Infective migratory larvae of the root-knot nematode, (Meloidogyne incognita var. acrita) were reared in the greenhouse on roots of Rutgers variety tomato plant. Infected tomato plants were removed from the culture and the roots were chopped very finely. A small amount of inoculum from the roots was added to pint Mason jars containing approximately 180 cc of soil. The jars containing the inoculum and soil were capped and incubated for one week at room temperature. During this period eggs of the nematode hatched and the larvae forms migrated into the soil.
# The test compounds were formulated by diluting the stock suspension with water to give a suspension containing 500 parts of test compound per million parts of final formulation. 10 milliliters of the test formulation was added to each of two jars for each dosage treated. As a control 10 milliliters of a water-acetone-emulsifier solution containing no test compound was also added to jars containing nematode larvae. The jars were capped and the contents thoroughly mixed on a kale mill for five minutes. The jars remained capped at room temperature for a period of 48 hours and the contents were then transferred to 3 inch pots. Subsequently, the pots were seeded to cucumber as an indicator crop and placed in the green house where they were cared for in the normal fashion for growing potted cucumber for approximately three weeks. These cucumber plants were then removed from the pots, the soil washed from the roots and the amount of galling visually rated.
# [5] = tested on: bean aphid (Aphis fabae Scop.); assay: Bean Aphid Foliage Spray Test; parameters: key: A: excellent control; B: partial control; C: no control; conditions: 500 parts per million foliage spray; 24 hour holding period
# Description: as §1
# Adults and nymphal stages of the bean aphid (Aphis fabae Scop.) reared on potted dwarf nasturtium plants at 65°-70° F. and 50-70 percent relative humidity, constituted the test insects. For testing purposes, the number of aphids per pot was standardized to 100-150 by trimming plants containing excess aphids.
# The test compounds were formulated by diluting the stock suspension with water to give a suspension containing 500 parts of test compound per million parts of final formulation.
# The potted plants (one pot per compound tested) infested with 100-150 aphids, were placed on a revolving turntable and sprayed with 100-110 milliliters of test compound formulation by use of a DeVilbiss spray gun set at 40 psig. air pressure. This application, which lasted 25 seconds, was sufficient to wet the plants to run-off. As a control, 100-110 milliliters of a water-acetone-emulsifier solution containing no test compound were also sprayed on infested plants. After spraying, the pots were placed on their sides on a sheet of white standard mimeograph paper which had been previously ruled to facilitate counting. Temperature and humidity in the test room during the 24 hour holding period were 65°-70° F. and 50-70 percent, respectively. Aphids which fell onto the paper and were unable to remain standing after being uprighted were considered dead. Aphids remaining on the plants were observed closely for movement and those which were unable to move the length of the body upon stimulation by prodding were considered dead. Percent mortality was recorded for various concentration levels.
# [6] = tested on: two-spotted mite (Tetranychus urticae Koch); assay: Mite Foliage Spray Test; parameters: key: A: excellent control; B: partial control; C: no control; conditions: 500 parts per million foliage spray; six days
# Description: as §1
# Adults and nymphal stages of the two-spotted mite (Tetranychus urticae Koch), reared on Tendergreen bean plants at 80±5 percent relative humidity, were the test organisms. Infested leaves from a stock culture were placed on the primary leaves of two bean plants six to eight inches in height, growing in a two-and-a-half inch clay pot. 150-200 Mites, a sufficient number for testing, transferred from the excised leaves to the fresh plants in a period of twenty four hours. Following the twenty four hour transfer period, the excised leaves were removed from the infested plants. The test compounds were formulated by diluting the stock suspension with water to give a suspension containing 500 parts of test compound per million parts of final formulation. The potted plants (one pot per compound) were placed on a revolving turntable and sprayed with 100-110 milliliters of test compound formulation by use of a DeVilbiss spray gun set at 40 psig. air pressure. This application, which lasted 25 seconds, was sufficient to wet the plants to run-off. As a control, 100-110 milliliters of a water solution containing acetone and emulsifier in the same concentrations as the test compound formulation, but containing no test compound, were also sprayed on infested plants. The sprayed plants were held at 80±5 percent relative humidity for six days, after which a mortality count of motile forms was made. Microscopic examination for motile forms was made on the leaves of the test plants. Any individual which was capable of locomotion upon prodding was considered living.
structure (smiles),measurement,setting,value
CSSN(C)C(=O)ON=C1SCOC1C (stereo not drawn),"H. Fly, pesticidal activity rating",[1],A
same,"S. Armyworm, pesticidal activity rating",[2],A
same,"M. Bean Beetle, pesticidal activity rating",[3],A
same,"Nematodes, nematocidal toxicity rating (galling)",[4],1
same,"Aphid, pesticidal activity rating",[5],A
same,"Mite, pesticidal activity rating",[6],A
CN(SSc1ccc(C(C)(C)C)cc1)C(=O)ON=C1CSCCS1,"H. Fly, pesticidal activity rating",[1],A
same,"S. Armyworm, pesticidal activity rating",[2],A
same,"M. Bean Beetle, pesticidal activity rating",[3],A
same,"Nematodes, nematocidal toxicity rating (galling)",[4],4
same,"Aphid, pesticidal activity rating",[5],A
same,"Mite, pesticidal activity rating",[6],A
CC1OCSC1=NOC(=O)N(C)SSC(C)(C)C (stereo not drawn),"H. Fly, pesticidal activity rating",[1],A
same,"S. Armyworm, pesticidal activity rating",[2],A
same,"M. Bean Beetle, pesticidal activity rating",[3],A
same,"Nematodes, nematocidal toxicity rating (galling)",[4],1
same,"Aphid, pesticidal activity rating",[5],A
same,"Mite, pesticidal activity rating",[6],A
CN(SSC1CCCCC1)C(=O)ON=C1SC(C)(C)C(=O)N1C,"H. Fly, pesticidal activity rating",[1],C
same,"S. Armyworm, pesticidal activity rating",[2],A
same,"M. Bean Beetle, pesticidal activity rating",[3],A
same,"Nematodes, nematocidal toxicity rating (galling)",[4],2
same,"Aphid, pesticidal activity rating",[5],A
same,"Mite, pesticidal activity rating",[6],C
CN(SSC(C)(C)C)C(=O)ON=C1CSCCS1,"H. Fly, pesticidal activity rating",[1],A
same,"S. Armyworm, pesticidal activity rating",[2],A
same,"M. Bean Beetle, pesticidal activity rating",[3],A
same,"Nematodes, nematocidal toxicity rating (galling)",[4],1
same,"Aphid, pesticidal activity rating",[5],A
same,"Mite, pesticidal activity rating",[6],A
CCCCCCCCSSN(C)C(=O)ON=C1SCOC1C (stereo not drawn),"H. Fly, pesticidal activity rating",[1],A
same,"S. Armyworm, pesticidal activity rating",[2],A
same,"M. Bean Beetle, pesticidal activity rating",[3],A
same,"Nematodes, nematocidal toxicity rating (galling)",[4],1
same,"Aphid, pesticidal activity rating",[5],A
same,"Mite, pesticidal activity rating",[6],A
Cc1ccc(SSN(C)C(=O)ON=C2SCOC2C)cc1 (stereo not drawn),"H. Fly, pesticidal activity rating",[1],A
same,"S. Armyworm, pesticidal activity rating",[2],A
same,"M. Bean Beetle, pesticidal activity rating",[3],A
same,"Nematodes, nematocidal toxicity rating (galling)",[4],1
same,"Aphid, pesticidal activity rating",[5],A
same,"Mite, pesticidal activity rating",[6],A
CC1OCSC1=NOC(=O)N(C)SSc1ccccc1 (stereo not drawn),"H. Fly, pesticidal activity rating",[1],A
same,"S. Armyworm, pesticidal activity rating",[2],A
same,"M. Bean Beetle, pesticidal activity rating",[3],A
same,"Nematodes, nematocidal toxicity rating (galling)",[4],2
same,"Aphid, pesticidal activity rating",[5],A
same,"Mite, pesticidal activity rating",[6],A
CC(C)SSN(C)C(=O)ON=C1SCOC1C (stereo not drawn),"H. Fly, pesticidal activity rating",[1],A
same,"S. Armyworm, pesticidal activity rating",[2],A
same,"M. Bean Beetle, pesticidal activity rating",[3],A
same,"Nematodes, nematocidal toxicity rating (galling)",[4],1
same,"Aphid, pesticidal activity rating",[5],A
same,"Mite, pesticidal activity rating",[6],A
CCCCSSN(C)C(=O)ON=C1SC(C)(C)C(=O)N1C,"H. Fly, pesticidal activity rating",[1],A
same,"S. Armyworm, pesticidal activity rating",[2],A
same,"M. Bean Beetle, pesticidal activity rating",[3],A
same,"Nematodes, nematocidal toxicity rating (galling)",[4],5
same,"Aphid, pesticidal activity rating",[5],A
same,"Mite, pesticidal activity rating",[6],A
CC1OCSC1=NOC(=O)N(C)SSc1ccc(Cl)cc1 (stereo not drawn),"H. Fly, pesticidal activity rating",[1],A
same,"S. Armyworm, pesticidal activity rating",[2],A
same,"M. Bean Beetle, pesticidal activity rating",[3],A
same,"Nematodes, nematocidal toxicity rating (galling)",[4],1
same,"Aphid, pesticidal activity rating",[5],A
same,"Mite, pesticidal activity rating",[6],A
Cc1ccc(SSN(C)C(=O)ON=C2SC(C)(C)C(=O)N2C)cc1,"H. Fly, pesticidal activity rating",[1],C
same,"S. Armyworm, pesticidal activity rating",[2],A
same,"M. Bean Beetle, pesticidal activity rating",[3],A
same,"Nematodes, nematocidal toxicity rating (galling)",[4],1
same,"Aphid, pesticidal activity rating",[5],C
same,"Mite, pesticidal activity rating",[6],C
CN(SSc1ccccc1)C(=O)ON=C1SC(C)(C)C(=O)N1C,"H. Fly, pesticidal activity rating",[1],B
same,"S. Armyworm, pesticidal activity rating",[2],A
same,"M. Bean Beetle, pesticidal activity rating",[3],A
same,"Nematodes, nematocidal toxicity rating (galling)",[4],1
same,"Aphid, pesticidal activity rating",[5],A
same,"Mite, pesticidal activity rating",[6],C
CN(SSc1ccc(Cl)cc1)C(=O)ON=C1SC(C)(C)C(=O)N1C,"H. Fly, pesticidal activity rating",[1],B
same,"S. Armyworm, pesticidal activity rating",[2],A
same,"M. Bean Beetle, pesticidal activity rating",[3],A
same,"Nematodes, nematocidal toxicity rating (galling)",[4],1
same,"Aphid, pesticidal activity rating",[5],A
same,"Mite, pesticidal activity rating",[6],C
CC(C)SSN(C)C(=O)ON=C1SC(C)(C)C(=O)N1C,"H. Fly, pesticidal activity rating",[1],A
same,"S. Armyworm, pesticidal activity rating",[2],A
same,"M. Bean Beetle, pesticidal activity rating",[3],A
same,"Nematodes, nematocidal toxicity rating (galling)",[4],1
same,"Aphid, pesticidal activity rating",[5],A
same,"Mite, pesticidal activity rating",[6],C
